The values that follow come from patent US20040058976A1, “Ophthalmic compositions for treating ocular hypertension” (priority 2003, published 2004).

The subject of the test is IOP in Dutch Belted Rabbits. In words: Intraocular pressure (IOP) measurements in conscious Dutch Belted rabbits after topical instillation. It is filed as in vivo, rabbit. The settings on record: for 030 min (Δmm Hg) Treated Mean change in IOP / 60 min (Δmm Hg) Treated Mean change in IOP / 120 min (Δmm Hg) Treated Mean change in IOP / 180 min (Δmm Hg) Treated Mean change in IOP / 240 min (Δmm Hg) Treated Mean change in IOP / 30 min (Δ mm Hg) Treated Mean change in IOP: change from Time 0, n = 24. The protocol:
Intraocular pressure measurements (IOP) were performed in conscious adult, pigmented Dutch Belted rabbits (2-4 kg). The animals were allowed free access to standard laboratory diet and tap water, and were housed on a 12 hour light/dark cycle. Seven day rest or washout periods were allowed between assessment of the effects of topically administered treatments on IOP. In order to measure IOP, rabbits were placed in commercially available restraint boxes. Rabbits were conditioned to the restraint boxes on at least two occasions for a period of time ranging up to 6 hours before their first study. On the morning of each experiment, rabbits were placed in restraint boxes for a period of one hour before the first measurement of IOP. IOP was recorded using a pneumatic tonometer (Alcon Applanation Pneumatonograph). Eyelids were gently separated manually and the fingers of the operator were held far enough from the eye to avoid any direct pressure on the eye and surrounding tissues. The membrane of the tonometer was placed on the central part of the cornea. Each measure of IOP lasted 3-5 seconds during which time the animal was completely relaxed. In general, two measures for each eye was sufficient, the first measure being frequently discarded. The tonometer tracing represents the oscillations which correspond to ocular pulsations; the average value of the oscillations corresponded to the level of IOP in mm Hg.
The initial measurement of control IOP was done on a number of rabbits, and 12 rabbits whose control IOP were between 17-25 mm Hg (values of IOP considered to be normal) were selected for study. In each study, the rabbits were separated into two equal subgroups of 6 rabbits each with essentially equivalent control IOPs. Each study consisted of the topical administration of active test substance to one subgroup of 6 rabbits (12 eyes) and vehicle to one subgroup of 6 rabbits (12 eyes); total number of eyes tested per study being 24. In each study, one drop (volume of 50 ul) of active test substance per vehicle was instilled by means of a Hamilton syringe into both eyes of each rabbit at time ) (To). IOPs were re-measured at 30 min, 1 hour, 2 hours, 3 hours and 4 hours after instillation. Results were expressed as mean+/−SD of changes in IOP (mm Hg) from the basal To levels measured just prior to the instillation of active test agent or vehicle. The significance of the data was determined as the difference from the To value using Dunnett's t-test, as well as use of an unpaired Student's t-test for comparisons of changes in IOP between test substance and vehicle at matched time points.
Vehicles consisted of 0.5% […] peanut oil. Formulation of test agents in peanut oil was performed as follows: peanut oil formulations were prepared by dissolving 0.5%, 0.2%, 0.1%, 0.05%, 0.025% or 0.01% (wt./wt) of the test compound in peanut oil. Sonnication was used to obtain complete dissolution of the compound.

The mark [1] stands for this setting: Table 2, 0.1% in peanut oil, topical.
The mark [2] stands for this setting: Table 3, 0.1% in peanut oil, topical.
Setting [3] is: Table 5, 0.1% in peanut oil, topical.

Turning to `COc1ccc2c(c1)c(CC(=O)N(C(=O)NC1CCCCC1)C1CCCCC1)c(C)n2C(=O)c1ccc(Cl)cc1` [Compound 1], the “effect on IOP (in words)” value (0.2% formulated in peanut oil) is “significant IOP lowering”. Under “0.2% in peanut oil, topical, 30 min”, the “030 min (Δmm Hg) Treated Mean change in IOP” value is reported as −2.0 mm Hg. Besides, under “0.2% in peanut oil, topical”, the “60 min (Δmm Hg) Treated Mean change in IOP” value is listed as −2.58 mm Hg, the “120 min (Δmm Hg) Treated Mean change in IOP” value is −2.96 mm Hg, the “180 min (Δmm Hg) Treated Mean change in IOP” value was −2.42 mm Hg and the “240 min (Δmm Hg) Treated Mean change in IOP” value is recorded as −1.58 mm Hg.
Take `CC(C)(O)[C@H]1O[C@H]2CC[C@@]3(C)[C@@](O)(CC[C@H]4Cc5c([nH]c6ccccc56)[C@@]43C)C2=CC1=O` [Paxilline]: where the note is “Table 2, 0.1% in peanut oil, topical, 30 min”, the “30 min (Δ mm Hg) Treated Mean change in IOP” value was −0.79 mm Hg. For the same molecule, under setting [1], the “60 min (Δmm Hg) Treated Mean change in IOP” value is −2.67 mm Hg, the “120 min (Δmm Hg) Treated Mean change in IOP” value is on record as −2.67 mm Hg, the “180 min (Δmm Hg) Treated Mean change in IOP” value is −1.71 mm Hg and the “240 min (Δmm Hg) Treated Mean change in IOP” value was −1.38 mm Hg.
For the molecule `C=C(C)[C@H]1O[C@H]2CC[C@@]3(C)[C@@](O)(CC[C@H]4[C@@H]5OC(C)(C)[C@H]6C[C@@H]7C(=C)Cc8c(Cl)cc9[nH]c(c5c9c8[C@@]76O)[C@@]43C)[C@@]23O[C@H]3[C@H]1O` [Penitrem A], the “effect on IOP (in words)” value (0.1% formulated in peanut oil) is given as “significant IOP lowering”. In addition, for the setting “Table 3, 0.1% in peanut oil, topical, 30 min”, the “30 min (Δ mm Hg) Treated Mean change in IOP” value is reported as −1.33 mm Hg. Under setting [2], the “60 min (Δmm Hg) Treated Mean change in IOP” value was −2.08 mm Hg, the “120 min (Δmm Hg) Treated Mean change in IOP” value is on record as −3.91 mm Hg, the “180 min (Δmm Hg) Treated Mean change in IOP” value is listed as −2.96 mm Hg and the “240 min (Δmm Hg) Treated Mean change in IOP” value is given as −2.46 mm Hg.
With `CC(C)(C)NC[C@H](O)COc1nsnc1N1CCOCC1` [Timolol Free Base, timolol], the “effect on IOP (in words)” value (0.5% (free base equivalent) formulated in peanut oil) was “significant IOP lowering”. The “030 min (Δmm Hg) Treated Mean change in IOP” value (0.5% in peanut oil, topical 50 ul both eyes, 30 min after instillation) is −2.63 mm Hg. Also, under “0.5% in peanut oil, topical”, the “60 min (Δmm Hg) Treated Mean change in IOP” value is reported as −3.46 mm Hg, the “120 min (Δmm Hg) Treated Mean change in IOP” value is given as −3.96 mm Hg, the “180 min (Δmm Hg) Treated Mean change in IOP” value is reported as −4.21 mm Hg and the “240 min (Δmm Hg) Treated Mean change in IOP” value is given as −2.04 mm Hg.
For the molecule Afletrem, the “030 min (Δmm Hg) Treated Mean change in IOP” value (Table 5, 0.1% in peanut oil, topical, 30 min) was −1.54 mm Hg. Under setting [3], the “60 min (Δmm Hg) Treated Mean change in IOP” value was −2.04 mm Hg, the “120 min (Δmm Hg) Treated Mean change in IOP” value is given as −2.54 mm Hg, the “180 min (Δmm Hg) Treated Mean change in IOP” value was −2.13 mm Hg and the “240 min (Δmm Hg) Treated Mean change in IOP” value is recorded as −1.42 mm Hg.
